Results as given in patent publication US20130261045A1, “GREEN TEA POLYPHENOL ALPHA SECRETASE ENHANCERS AND METHODS OF USE” (UNIVERSITY OF SOUTH FLORIDA, priority 2005, published 2013).
Peptide text beside a SMILES is read from it. * marks the point of attachment. Cbz = O=C(OCc1ccccc1)*

Columns and labels:
Type in all cases: cell-based, murine
APP cleavage processing = experiment: Western blot/immunoprecipitation of APP cleavage (CTFs, sAPP-α, holo APP) in APP-transfected N2a cells; conditions: for α-CTF production: at the high dose; for α-CTF generation and α-CTF to β-CTF ratio: 80 μM; for effect on the action of EGCG on α-CTF cleavage: GC or C 80 μM with EGCG, FIG. 2F
Experimental: Cell cultured supernatants were collected and cell lysates were prepared from these cultured cells.
Cultured cells and mouse brain were lysed in ice-cold lysis buffer described above, and an aliquot corresponding to 50 μg of total protein was electrophoretically separated using 16.5% Tris-tricine gels. Electrophoresed proteins were then transferred to PVDF membranes (Bio-Rad), washed in dH2O, and blocked for 1 hour at ambient temperature in Tris-buffered saline (TBS; Bio-Rad) containing 5% (w/v) for non-fat dry milk. After blocking, membranes were hybridized for 1 hour at ambient temperature with various antibodies, including against the C- (369), N-terminus of APP (22C11), the N-terminus of Aβ (6E10), and ADAM10 and TACE (Calbiochem). Membranes were then washed 3× for 5 min each in dH2O and incubated for 1 hour at ambient temperature with the appropriate HRP-conjugated secondary antibody (1:1,000, Pierce Biotechnology, Inc. Rockford, Ill.). All antibodies were diluted in TBS containing 5% (w/v) of non-fat dry milk. Blots were developed using the luminal reagent (Pierce Biotechnology). Densitometric analysis was done using the Fluor-S Multimager™ with Quantity One™ software (Bio-Rad). Immunoprecipitation was performed for detection of sAPP-α, sAPP-β and Aβ by incubating 200 μg of total protein of each sample with 6E10 (1:100; Signet) or 22C11 (1:100; Roche, Basel, Switzerland) overnight with gentle rocking at 4° C., and 10 μL of 50% protein A-Sepharose beads were then added to the sample (1:10; Sigma) prior to gentle rocking for an additional 4 hours at 4° C. Following washes with 1× cell lysis buffer, samples were subjected to Western blot as described above. Antibodies used for Western blot included antibody 369 (1:1,000), anti-C-terminal APP antibody (1:500; Chemicon, Temecula, Calif.), BAM-10 (1:1,000; Sigma), 6E10 (1:1,000; Signet) or anti-Actin antibody (1:1,500; as an internal reference control; Roche). α-, β- and γ-secretase activities were quantified in cell lysates and mouse brain homogenates using available kits based on secretase-specific peptides conjugated to fluorogenic receptor molecules (R&D Systems, Minneapolis, Minn.).

α-secretase = α-secretase cleavage activity kit, lysates of APP-transfected N2a cells; conditions: TAPI-1 25 μM with EGCG 20 μM, 4 hours; FIGS. 3d and e
Aβ generation = experiment: Aβ ELISA, conditioned media of APP-transfected N2a cells (Example 1); conditions: co-treatment with EGCG 20 μM, GC or C 80 μM, 12 hours; SweAPP N2a cells
Experimental: Aβ1-40 and 1-42 peptides were analyzed in the conditioned media from SweAPP N2a cells (FIGS. 1A, 1C, 1D) and transgenic APPsw mouse-derived primary neuronal cells (FIG. 1B) by ELISA (n=3 for each condition).
TAPI-1, β and γ-secretase inhibitors were obtained from Calbiochem (San Diego, Calif.). Green tea extract (75% polyphenols) was obtained from the Vitamin Shoppe™ (North Bergen, N.J.).
Cultured cells were lysed in ice-cold-lysis buffer (20 mM Tris, pH 7.5, 150 mM NaCl, 1 mM EDTA, 1 mM EGTA, 1% v/v Triton X-100, 2.5 mM sodium pyropgosphate, 1 mM β-glycerolphosphate, 1 mM Na3VO4, 1 μg/mL leupeptin, 1 mM PMSF) as previously described (Tan et al., 2002). Mouse brains were isolated under sterile conditions on ice and placed in ice-cold lysis buffer. Brains were then sonicated on ice for approximately 3 min, allowed to stand for 15 min at 4° C., and centrifuged at 15,000 rpm for 15 min. Total Aβ1-42 species were detected by acid extraction of brain homogenates in 5 M guanidine buffer (ret), followed by a 1:10 dilution in lysis buffer. Soluble Aβ1-42 was directly detected in cultured cell lysates or brain homogenates prepared with lysis buffer described above by a 1:4 or 1:10 dilution, respectively. Aβ1-42 was quantified in these samples using the Aβ1-42 ELISA kit (BioSource, Camarillo, Calif.) in accordance with the manufacturer's instructions, except that standards included a 0.5 M guanidine buffer.
In order to examine the effects of green tea's components on APP cleavage processing, for a first step, N2a neuroblastoma cells overproducing Aβ were treated with each of the aforementioned components at a wide range of doses. In addition, doses of (+)-catechin hydrate (CH) and gallic acid monohydrate (GAM) were included in the first step.

[1] = 0.5 μM to 1.5 μM, SweAPP N2a cells, data not shown

Molecule	α-CTF production (APP cleavage processing)	α-CTF generation and α-CTF to β-CTF ratio (APP cleavage processing)	effect on the action of EGCG on α-CTF cleavage (APP cleavage processing)	effect on the ability of EGCG to reduce Aβ production (Aβ generation)	other results
CC(C)C[C@@H](C=O)NC(=O)[C@H](CC(C)C)NC(=O)[C@@H](NC(=O)OCc1ccccc1)C(C)C [β-secretase inhibitor II, reference compound] (Cbz-Val-Leu-Leu-aldehyde)	–	–	–	–	sAPP-α levels compared with EGCG (APP cleavage processing; [1]): failed to produce the same increased α-CTF and sAPP-α levels as EGCG; α-CTF levels compared with EGCG (APP cleavage processing; [1]): failed to produce the same increased α-CTF and sAPP-α levels as EGCG
Oc1cc(O)c2c(c1)O[C@@H](c1ccc(O)c(O)c1)[C@@H](O)C2 [(+) EC, (+)-epicatechin]	increases	–	–	–	–
CC(C)C[C@H](CC(=O)NO)C(=O)N[C@@H](Cc1ccc2ccccc2c1)C(=O)N[C@@H](C)C(=O)NCCN [TAPI-1, reference compound]	–	–	–	–	effect on EGCG promotion of APP α-secretase cleavage (α-secretase): significantly attenuated
Oc1cc(O)c2c(c1)O[C@H](c1ccc(O)c(O)c1)[C@H](O)C2 [(−) EC, (−)-epicatechin]	increases	–	–	–	–
(−)-catechin	–	decreased	significantly opposes	markedly inhibits the ability of EGCG to reduce Aβ production	–
Oc1cc(O)c2c(c1)O[C@H](c1cc(O)c(O)c(O)c1)[C@@H](O)C2 [GC, (−)-gallocatechin]	–	decreased	significantly opposes	markedly inhibits the ability of EGCG to reduce Aβ production	–
